Earlier results as cited in patent US11491229B2, “Medication system” (priority 2015, dated 2022).

Experiments:
[1] = tested on: estrogen receptor-positive and estrogen receptor-negative breast cancer cell lines; conditions: inducing apoptosis in a concentration-dependent manner
[2] = tested on: nontumorigenic mammary cells
breast tumors = conditions: mice models
prostate cell line, PC-3 = conditions: Ruiz et al. 1999
[3] = target: T1, androgen receptor in the prostate gland (Homo sapiens, UniProt P10275)
T1 sequence (P10275 1-920): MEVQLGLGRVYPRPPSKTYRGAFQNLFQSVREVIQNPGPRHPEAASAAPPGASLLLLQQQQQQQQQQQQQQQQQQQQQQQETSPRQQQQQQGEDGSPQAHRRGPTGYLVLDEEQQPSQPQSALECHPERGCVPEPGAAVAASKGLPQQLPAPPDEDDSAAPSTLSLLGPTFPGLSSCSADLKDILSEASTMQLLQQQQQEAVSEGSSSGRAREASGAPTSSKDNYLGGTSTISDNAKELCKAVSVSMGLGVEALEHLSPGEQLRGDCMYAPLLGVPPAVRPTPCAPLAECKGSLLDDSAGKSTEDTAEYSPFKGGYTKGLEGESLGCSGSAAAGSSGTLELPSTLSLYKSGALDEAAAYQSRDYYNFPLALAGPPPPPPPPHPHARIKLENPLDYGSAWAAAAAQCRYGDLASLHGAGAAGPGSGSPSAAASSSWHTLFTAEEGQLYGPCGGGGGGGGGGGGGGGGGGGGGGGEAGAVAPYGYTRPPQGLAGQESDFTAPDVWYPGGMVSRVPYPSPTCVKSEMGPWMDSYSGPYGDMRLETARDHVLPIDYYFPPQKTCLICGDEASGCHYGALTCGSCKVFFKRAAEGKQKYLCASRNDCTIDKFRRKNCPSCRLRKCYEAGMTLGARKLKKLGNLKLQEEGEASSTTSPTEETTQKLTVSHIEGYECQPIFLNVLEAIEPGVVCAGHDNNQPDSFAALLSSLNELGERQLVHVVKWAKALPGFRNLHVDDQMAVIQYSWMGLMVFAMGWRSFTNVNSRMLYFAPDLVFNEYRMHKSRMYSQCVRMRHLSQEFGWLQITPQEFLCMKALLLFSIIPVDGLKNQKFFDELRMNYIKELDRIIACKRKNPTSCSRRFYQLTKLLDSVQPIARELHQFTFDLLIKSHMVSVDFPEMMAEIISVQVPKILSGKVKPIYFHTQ

CB1 receptor = CB1 receptor (Homo sapiens, UniProt P21554)
Chain of CB1 receptor (P21554 whole entry): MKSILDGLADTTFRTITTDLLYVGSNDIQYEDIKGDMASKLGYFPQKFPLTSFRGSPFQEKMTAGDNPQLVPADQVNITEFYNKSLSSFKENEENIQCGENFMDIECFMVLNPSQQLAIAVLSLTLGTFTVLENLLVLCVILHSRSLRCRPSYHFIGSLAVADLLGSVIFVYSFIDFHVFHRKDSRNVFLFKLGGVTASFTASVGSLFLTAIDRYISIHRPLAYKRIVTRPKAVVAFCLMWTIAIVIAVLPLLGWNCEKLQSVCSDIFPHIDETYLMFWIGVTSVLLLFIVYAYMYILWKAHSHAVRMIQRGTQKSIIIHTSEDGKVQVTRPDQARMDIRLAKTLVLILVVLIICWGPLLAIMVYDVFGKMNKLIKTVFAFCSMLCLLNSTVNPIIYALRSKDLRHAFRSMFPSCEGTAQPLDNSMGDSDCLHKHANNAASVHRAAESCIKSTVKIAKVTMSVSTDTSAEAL

[4] = not given; remark: listed apart in the source

For `C=C(C)[C@@H]1CCC(C)=C[C@H]1c1c(O)cc(CCCCC)cc1O` [CBD, Cannabidiol], the “survival of breast cancer cell lines” value [1] is given as “inhibited the survival”, the “effect on nontumorigenic mammary cells” value [2] is given as “little effect” and the “effect on breast tumors” value (breast tumors) is given as “shrink breast tumors, and obstruct growth and metastasis”. The “affinity to cannabinoid receptors” value (cannabinoid receptors) was “low affinity”.
For `CCCCCc1cc(O)c2c(c1)OC(C)(C)[C@@H]1CCC(C)=C[C@@H]21` [THC, Tetrahydrocannabinol], the “time after administration at which pain reduction effects were felt (average)” value (cold-pressor test) is listed as 180 min, the pain sensitivity (cold-pressor test after administration, smoked marijuana or oral dronabinol capsules 10 mg or 20 mg) is listed as “decreased pain sensitivity” and the duration of effects (dronabinol compared with smoked marijuana) is listed as “lasted longer than smoked marijuana”. The apoptosis (prostate cell line, PC-3) was “causes apoptosis” and the “specific binding of dihydroxytestosterone to the androgen receptor” value [3] was “inhibits specific binding”.
For `CCCc1cc(O)c2c(c1)OC(C)(C)[C@@H]1CCC(C)=C[C@@H]21` [THCV, Tetrahydrocannabivarin], the “CB1 receptor mode of action” value (CB1 receptor) is listed as “antagonist”.
For vitamin E, the “reduction in breast cancer incidence” value ([4]; pre-menopausal women with a family history of breast cancer, highest quantity of vitamin E consumed) is given as 43% and the “risk reduction of breast cancer” value ([4]; women without a family history of breast cancer) is given as 16%.
